Experimental data as given in patent US10294234B2, “HIV inhibitor compounds” (priority 2017, dated 2019).
pEC50: −log10 of the molar value. Read-outs that look alike come from different tables or passages of the source.

Tests used:
[1] = How it was run: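 Compounds at 1 uM were incubated in duplicate with dog, rat or human liver microsomes (0.5 mg/mL protein) and an NADPH-regenerating system, sampled at 2, 12, 25, 45 and 65 minutes. Remaining parent was measured by LC/MS/MS, and Clint was calculated from the in vitro t1/2.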
[2] = tested on: HIV-1 (IIIB) in MT-4 cells; assay: MT-4 HIV assay; type: cell-based
How it was run: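 MT-4 cells infected with HIV-1 IIIB (1:250 stock dilution) were incubated with 1:3 serially diluted compounds in RPMI with 10% FBS for 5 days at 37 °C. Cell Titer Glo luminescence was the readout. Plates included mock-infected wells, no-drug wells and 5 uM AZT controls.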

[3] = Human immunodeficiency virus 1, MT4, 120 h, HIV-1 (IIIB), MT-4 cells, 5 days, Cell Titer Glo, read-out: EC50
[4] = human liver microsomes 0.5 mg/mL, 1 uM compound, NADPH
[5] = rat liver microsomes 0.5 mg/mL, 1 uM compound, NADPH
[6] = Human immunodeficiency virus 1, MT4, 120 h

Compound | Human Pred Cl. ([1]; human, microsomes) [L/H/kg] | Rat. Pred. Cl. ([1]; rat, microsomes) [L/H/kg] | pEC50 [2, 3] | Dog. Pred. Cl. ([1]; dog, microsomes) [L/H/kg] | Human Pred Cl. [1, 4] [L/H/kg] | Rat. Pred. Cl. [1, 5] [L/H/kg] | pEC50 ([2]; HIV-1 (IIIB), MT-4 cells, 5 days, Cell Titer Glo, read-out: EC50) | pEC50 [2, 6]
COC(=O)N[C@H](C(=O)N[C@@H](Cc1ccc(-c2ccc(N3CC4CCC(C3)N4C3COC3)nc2)cc1)[C@@H](O)CN(Cc1c(F)cc(-c2ccn(C)n2)cc1F)NC(=O)[C@@H](NC(=O)OC)C(C)(C)C(F)(F)F)C(C)(C)C(F)(F)F [Example 207, Methyl ((5S,8S,9S,14S)-11-(2,6-difluoro-4-(1-methyl-1H-pyrazol-3-yl)benzyl)-16,16,16-trifluoro-9-hydroxy-15,15-dimethyl-8-(4-(6-(8-(oxetan-3-yl)-3,8-diazabicyclo[3.2.1]octan-3-yl)pyridin-3-yl)benzyl)-3,6,13-trioxo-5-(1,1,1-trifluoro-2-methylpropan-2-yl)-2-oxa-4,7,11,12-tetraazahexadecan-14-yl)carbamate] | 0.25 | 0.92 | 8.61 | – | – | – | – | –
COC(=O)N[C@H](C(=O)NN(Cc1c(F)cc(-c2ccn(C(F)F)n2)cc1F)C[C@H](O)[C@H](Cc1ccc(-c2cnc(N3CC4CCC(C3)N4C3COC3)nc2)cc1)NC(=O)[C@@H](NC(=O)OC)C(C)(C)C(F)(F)F)C(C)(C)C [Example 192, methyl ((5S,8S,9S,14S)-11-(4-(1-(difluoromethyl)-1H-pyrazol-3-yl)-2,6-difluorobenzyl)-9-hydroxy-15,15-dimethyl-8-(4-(2-(8-(oxetan-3-yl)-3,8-diazabicyclo[3.2.1]octan-3-yl)pyrimidin-5-yl)benzyl)-3,6,13-trioxo-5-(1,1,1-trifluoro-2-methylpropan-2-yl)-2-oxa-4,7,11,12-tetraazahexadecan-14-yl)carbamate] | 0.22 | 0.36 | 8.54 | 1.04 | – | – | – | –
Methyl ((5S,8S,9S,14S)-11-(2,6-difluoro-4-(1-methyl-1H-pyrazol-3-yl)benzyl)-16,16,16-trifluoro-9-hydroxy-15,15-dimethyl-8-(4-((6-(8-(oxetan-3-yl)-3,8-diazabicyclo[3.2.1]octan-3-yl)pyridin-3-yl)ethynyl)benzyl-3,6,13-trioxo-5-(1,1,1-trifluoro-2-methylpropan-2-yl)-2-oxa-4,7,11,12-tetraazahexadecan-14-yl)carbamate [Example 128] | – | – | – | – | 0.15 | 0.37 | 8.50 | –
COC(=O)N[C@H](C(=O)N[C@@H](Cc1ccc(C#Cc2ccc(N3CCN(C4CCOCC4)CC3)nc2)cc1)[C@@H](O)CN(Cc1c(F)cc(-c2cnn(C(F)F)c2)cc1F)NC(=O)[C@@H](NC(=O)OC)C(C)(C)C(F)(F)F)C(C)(C)C(F)(F)F [Example 115, Methyl ((5S,8S,9S,14S)-11-(4-(1-(difluoromethyl)-1H-pyrazol-4-yl)-2,6-difluorobenzyl)-16,16,16-trifluoro-9-hydroxy-15,15-dimethyl-3,6,13-trioxo-8-(4-((6-(4-(tetrahydro-2H-pyran-4-yl)piperazin-1-yl)pyridin-3-yl)ethynyl)benzyl)-5-(1,1,1-trifluoro-2-methylpropan-2-yl)-2-oxa-4,7,11,12-tetraazahexadecan-14-yl)carbamate] | – | – | 8.50 | – | 0.12 | <0.18 | – | –
COC(=O)N[C@H](C(=O)N[C@@H](Cc1ccc(C#Cc2ccc(N3CC4CCC(C3)N4C(=O)[C@@H]3CCCO3)nc2)cc1)[C@@H](O)CN(Cc1c(F)cc(-c2cnn(C(F)F)c2)cc1F)NC(=O)[C@@H](NC(=O)OC)C(C)(C)C(F)(F)F)C(C)(C)C(F)(F)F [Example 18, Methyl ((5S,8S,9S,14S)-11-(4-(1-(difluoromethyl)-1H-pyrazol-4-yl)-2,6-difluorobenzyl)-16,16,16-trifluoro-9-hydroxy-15,15-dimethyl-3,6,13-trioxo-8-(4-((6-(8-((S)-tetrahydrofuran-2-carbonyl)-3,8-diazabicyclo[3.2.1]octan-3-yl)pyridin-3-yl)ethynyl)benzyl)-5-(1,1,1-trifluoro-2-methylpropan-2-yl)-2-oxa-4,7,11,12-tetraazahexadecan-14-yl)carbamate] | 0.13 | 1.03 | 8.30 | – | – | – | – | –
COC(=O)N[C@H](C(=O)N[C@@H](Cc1ccc(C#Cc2ccc(N3C[C@H]4C[C@@H]3CN4C3COC3)nc2)cc1)[C@@H](O)CN(Cc1c(F)cc(-c2ncccn2)cc1F)NC(=O)[C@@H](NC(=O)OC)C(C)(C)C(F)(F)F)C(C)(C)C(F)(F)F [Example 93, Methyl ((5S,8S,9S,14S)-11-(2,6-difluoro-4-(pyrimidin-2-yl)benzyl)-16,16,16-trifluoro-9-hydroxy-15,15-dimethyl-8-(4-((6-((1R,4R)-5-(oxetan-3-yl)-2,5-diazabicyclo[2.2.1]heptan-2-yl)pyridin-3-yl)ethynyl)benzyl)-3,6,13-trioxo-5-(1,1,1-trifluoro-2-methylpropan-2-yl)-2-oxa-4,7,11,12-tetraazahexadecan-14-yl)carbamate] | – | – | 8.60 | – | 0.19 | 1.13 | – | –
COC(=O)N[C@H](C(=O)N[C@@H](Cc1ccc(C#Cc2ccc(N3C[C@H]4C[C@@H]3CN4C3COC3)nc2)cc1)[C@@H](O)CN(Cc1c(F)cc(-c2ccn(C3CC3)n2)cc1F)NC(=O)[C@@H](NC(=O)OC)C(C)(C)C(F)(F)F)C(C)(C)C(F)(F)F [Example 45, Methyl ((5S,8S,9S,14S)-11-(4-(1-cyclopropyl-1H-pyrazol-3-yl)-2,6-difluorobenzyl)-16,16,16-trifluoro-9-hydroxy-15,15-dimethyl-8-(4-((6-((1R,4R)-5-(oxetan-3-yl)-2,5-diazabicyclo[2.2.1]heptan-2-yl)pyridin-3-yl)ethynyl)benzyl)-3,6,13-trioxo-5-(1,1,1-trifluoro-2-methylpropan-2-yl)-2-oxa-4,7,11,12-tetraazahexadecan-14-yl)carbamate] | – | – | – | – | <0.11 | 0.92 | – | 8.59
COC(=O)N[C@H](C(=O)N[C@@H](Cc1ccc(C#Cc2ccc(N3CCN([C@H]4CCOC4)CC3)nc2)cc1)[C@@H](O)CN(Cc1c(F)cc(-c2ccn(C(F)F)n2)cc1F)NC(=O)[C@@H](NC(=O)OC)C(C)(C)C(F)(F)F)C(C)(C)C(F)(F)F [Example 145, Methyl ((5S,8S,9S,14S)-11-(4-(1-(difluoromethyl)-1H-pyrazol-3-yl)-2,6-difluorobenzyl)-16,16,16-trifluoro-9-hydroxy-15,15-dimethyl-3,6,13-trioxo-8-(4-((6-(4-((S)-tetrahydrofuran-3-yl)piperazin-1-yl)pyridin-3-yl)ethynyl)benzyl)-5-(1,1,1-trifluoro-2-methylpropan-2-yl)-2-oxa-4,7,11,12-tetraazahexadecan-14-yl)carbamate] | – | – | – | – | <0.11 | – | – | 8.30
COC(=O)N[C@H](C(=O)N[C@@H](Cc1ccc(C#Cc2cnc(N3C[C@H]4C[C@@H]3CN4C3COC3)nc2)cc1)[C@@H](O)CN(Cc1c(F)cc(-c2ccn(C(F)F)n2)cc1F)NC(=O)[C@@H](NC(=O)OC)C(C)(C)C(F)(F)F)C(C)(C)C(F)(F)F [Example 32, Methyl ((5S,8S,9S,14S)-11-(4-(1-(difluoromethyl)-1H-pyrazol-3-yl)-2,6-difluorobenzyl)-16,16,16-trifluoro-9-hydroxy-15,15-dimethyl-8-(4-((2-((1R,4R)-5-(oxetan-3-yl)-2,5-diazabicyclo[2.2.1]heptan-2-yl)pyrimidin-5-yl)ethynyl)benzyl)-3,6,13-trioxo-5-(1,1,1-trifluoro-2-methylpropan-2-yl)-2-oxa-4,7,11,12-tetraazahexadecan-14-yl)carbamate] | – | – | 8.58 | – | <0.11 | 0.59 | – | –
COC(=O)N[C@H](C(=O)N[C@@H](Cc1ccc(C#Cc2ccc(N3CC4CCC(C3)N4C3COC3)nc2)cc1)[C@@H](O)CN(Cc1c(F)cc(-c2cc[nH]n2)cc1F)NC(=O)[C@@H](NC(=O)OC)C(C)(C)C(F)(F)F)C(C)(C)C(F)(F)F [Example 126, Methyl ((5S,8S,9S,14S)-11-(2,6-difluoro-4-(1H-pyrazol-3-yl)benzyl)-16,16,16-trifluoro-9-hydroxy-15,15-dimethyl-8-(4-((6-(8-(oxetan-3-yl)-3,8-diazabicyclo[3.2.1]octan-3-yl)pyridin-3-yl)ethynyl)benzyl)-3,6,13-trioxo-5-(1,1,1-trifluoro-2-methylpropan-2-yl)-2-oxa-4,7,11,12-tetraazahexadecan-14-yl)carbamate] | 0.45 | <0.18 | 8.38 | – | – | – | – | –
COC(=O)N[C@H](C(=O)NN(Cc1c(F)cc(-c2ccn(CC(F)F)n2)cc1F)C[C@H](O)[C@H](Cc1ccc(C#Cc2ccc(N3CC4CCC(C3)N4C3COC3)nc2)cc1)NC(=O)[C@@H](NC(=O)OC)C(C)(C)C(F)(F)F)C(C)(C)C [Example 6, methyl ((5S,8S,9S,14S)-11-(4-(1-(2,2-difluoroethyl)-1H-pyrazol-3-yl)-2,6-difluorobenzyl)-9-hydroxy-15,15-dimethyl-8-(4-((6-(8-(oxetan-3-yl)-3,8-diazabicyclo[3.2.1]octan-3-yl)pyridin-3-yl)ethynyl)benzyl)-3,6,13-trioxo-5-(1,1,1-trifluoro-2-methylpropan-2-yl)-2-oxa-4,7,11,12-tetraazahexadecan-14-yl)carbamate] | <0.11 | 0.22 | 8.45 | – | – | – | – | –
